{"source": "paper PMC11857211", "about": "“Bioprospecting Bioactive Peptides in Halobatrachus didactylus Body Mucus: From In Silico Insights to Essential In Vitro Validation” (Marine Drugs, 2025)", "key": {"[1]": {"set-up": "method as in 2 sources, one per row (each row's own in cited_ref): ref 19 = [19]; doi:10.1016/j.procbio.2018.06.001; 19. Jin J. Ahn C. Je J. Puri Fi Cation and Characterization of Antioxidant Peptides from Enzymatically Hydrolyzed Ark Shell ( Scapharca subcrenata ) Process Biochem. 2018 72 170 176 10.1016/j.procbio. ||| ref 21 = [21]; PMID 26304349; doi:10.1016/j.foodchem.2015.07.015; 21. Zheng L. Zhao M. Xiao C. Zhao Q. Su G. Practical Problems When Using ABTS Assay to Assess the Radical-Scavenging Activity of Peptides: Importance of Controlling Reaction PH and Time Food Chem. 201", "details": "cited from earlier work; for ABTS antioxidant activity: ark shell (Scapharca subcrenata) peptides, values converted to the same units"}, "[2]": {"details": "ark shell (Scapharca subcrenata) peptides, values converted to the same units; cited from earlier work", "source_text": "In the ORAC assay, the values were 0.334 µmol TE/µmol of peptide for P1 and ..."}, "ACE": {"tested_on": "ACE", "set-up": "method as in 2 sources, one per row (each row's own in cited_ref): ref 27 = [27]; PMID 29533693; doi:10.1080/10408398.2018.1452182; 27. Yathisha U.G. Bhat I. Karunasagar I. Mamatha B.S. Antihypertensive Activity of Fish Protein Hydrolysates and Its Peptides Crit. Rev. Food Sci. Nutr. 2019 59 2363 2374 10.1080/10408398.2018.1452182 ||| ref 28 = [28]; PMID 31671730; doi:10.3390/md17110613; 28. Abachi S. Bazinet L. Beaulieu L. Antihypertensive and Angiotensin-i-Converting Enzyme (ACE)-Inhibitory Peptides from Fish as Potential Cardioprotective Compounds Mar. Drugs 2019 17 613 10.3390/md1", "details": "cited from earlier work"}, "α-glucosidase [3]": {"molecular_target": "α-glucosidase (Saccharomyces cerevisiae, UniProt P53341)", "sequence (P53341 whole entry)": "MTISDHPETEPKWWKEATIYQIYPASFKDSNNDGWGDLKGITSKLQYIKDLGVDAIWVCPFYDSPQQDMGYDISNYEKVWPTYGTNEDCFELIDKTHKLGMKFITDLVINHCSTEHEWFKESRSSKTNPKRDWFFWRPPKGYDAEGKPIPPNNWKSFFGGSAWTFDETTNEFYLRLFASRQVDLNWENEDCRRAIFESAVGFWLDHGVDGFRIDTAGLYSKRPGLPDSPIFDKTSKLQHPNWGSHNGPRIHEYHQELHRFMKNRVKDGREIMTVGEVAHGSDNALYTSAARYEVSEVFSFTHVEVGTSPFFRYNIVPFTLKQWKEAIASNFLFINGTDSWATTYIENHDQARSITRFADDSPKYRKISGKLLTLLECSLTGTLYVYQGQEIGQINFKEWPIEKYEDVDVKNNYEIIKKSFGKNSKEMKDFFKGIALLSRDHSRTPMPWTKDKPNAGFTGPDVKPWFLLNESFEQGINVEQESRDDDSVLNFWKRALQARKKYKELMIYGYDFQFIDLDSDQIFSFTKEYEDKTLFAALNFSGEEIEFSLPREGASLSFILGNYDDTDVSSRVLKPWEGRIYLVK", "assay": "biochemical", "method": "The α-glucosidase inhibitory activity was evaluated through the following method, outlined by Vilas-Boas et al. [42]. The assay was performed in a 96-well microplate (Stansted) and incubated at 25 °C for 5 min, and the absorbance was monitored at 405 nm with a microplate reader (Synergy H1, BioTek Instruments, Winooski, VT, USA). A negative control was performed, with 50 μL of a buffer solution that replaced the peptides. […] Each sample and control analysis was triplicated. The inhibition of α-glucosidase was quantified as the concentration required to inhibit 50% of the enzymatic activity (IC50). The IC50 values were determined using non-linear modelling of the data obtained."}, "α-glucosidase [4]": {"molecular_target": "α-glucosidase", "set-up": "method as in PMID 34445765", "details": "peptides hydrolyzed from food sources; cited from earlier work", "experimental": "The peptides were tested for antidiabetic activity based on the capacity to inhibit 50% of […]."}, "[5]": {"details": "peptides from fish protein hydrolysates"}}, "note": "Where two headings read alike, the source gives them in different places. Ends that are not written are not given here."}
{"compound": "N[C@@H](Cc1ccc(O)cc1)C(=O)O", "note": "[Tyr]", "values": [{"measurement": "ABTS radical scavenging value", "setting": "[1]; pH 6.0", "value": 2.89, "unit": "µmol TE/µmol"}, {"measurement": "ABTS radical scavenging value", "setting": "[1]; pH 8.0", "value": 6.55, "unit": "µmol TE/µmol"}]}
{"compound": "HPLDSLCL [P2]", "values": [{"measurement": "ORAC antioxidant activity", "setting": "[2]", "value": "0.239 µmol TE/µmol of peptide"}, {"measurement": "ABTS antioxidant activity", "setting": "[1]", "value": "0.005 µmol TE/µmol of peptide"}]}
{"compound": "HWTTQR [peptide from Syngnathus schlegeli protein hydrolysate]", "values": [{"measurement": "ACE inhibition IC50", "setting": "ACE; [5]", "value": 1440, "unit": "µg/mL"}]}
{"compound": "IKPLNY", "values": [{"measurement": "ACE inhibition IC50", "setting": "ACE; synthesized peptide before/after fragmentation in digestion", "value": 32, "unit": "µg/mL"}]}
{"compound": "MCLDSCLL [P1]", "values": [{"measurement": "ORAC antioxidant activity", "setting": "[2]", "value": "0.334 µmol TE/µmol of peptide"}, {"measurement": "ABTS antioxidant activity", "setting": "[1]", "value": "0.678 µmol Trolox equivalents (TE)/µmol of peptide"}]}
{"compound": "PAPPPPPP [HdPPP]", "values": [{"measurement": "IC50", "setting": "α-glucosidase [3]; α-glucosidase IC50, 25 °C, 5 min, absorbance 405 nm, mean ± standard deviation, n = 3", "value": 2210, "unit": "µM"}, {"measurement": "IC50", "setting": "α-glucosidase [3]; α-glucosidase IC50, same result in molar units", "value": 2210, "unit": "µM"}]}
{"compound": "RVPSLM", "values": [{"measurement": "IC50", "setting": "α-glucosidase [4]", "value": 23.1, "unit": "µM"}]}
{"compound": "TFPHGP [peptide from Syngnathus schlegeli protein hydrolysate]", "values": [{"measurement": "ACE inhibition IC50", "setting": "ACE; [5]", "value": 600, "unit": "µg/mL"}]}
{"compound": "TPSPR", "values": [{"measurement": "IC50", "setting": "α-glucosidase [4]", "value": 40, "unit": "µM"}]}
